Assay results taken from patent US8580815B2, “Derivatives of azaindoles as inhibitors of protein kinases ABL and SRC” (Oribase Pharma, priority 2009, dated 2013).
Read-outs that look alike come from different tables or passages of the source.

Experiments:
Abl kinase (h) = Abl kinase (h) (Homo sapiens (Human), UniProt P00519); assay: Cerep kinase profiling, HTRF assay, Abl kinase; type: biochemical
Procedure: (§1) The inhibitory activity of the compounds of the chemical series on different protein kinases was evaluated by Cerep (Cerep Kinase Profiling Service; www.cerep.com). The kinases used in the tests in vitro are human recombinant proteins expressed in human cells, insect cells or in bacteria. […] The activity of the kinase was then detected by an HTRF assay. The HTRF assay (CisBio International) is based on fluorescence transfer, using Europium (Eu3+) cryptate and XL665 respectively as donor and acceptor. When the biotinylated or tagged substrate is phosphorylated by the kinase, it reacts with a cryptate-labelled phosphospecific antibody. Addition of Streptavidin-XL665, SA-XL665, (or anti-tag antibody XL665) leads to juxtaposition of the cryptate and of the fluorophore XL665, which is reflected in fluorescence resonance energy transfer (FRET). The intensity of FRET depends on the quantity of cryptate-labelled antibody bound to the substrate, which is proportional to the quantity of phosphorylated substrate (Mathis, G. Probing molecular interactions with homogeneous techniques based on rare earth cryptates and fluorescence energy transfer.

c-kit kinase (h) = c-kit kinase (h) (Homo sapiens (Human), UniProt P10721); assay: Cerep kinase profiling, HTRF assay, c-kit kinase; type: biochemical; settings: compound incubated at 10 μM; read-out: Percentage inhibition of kinase c-kit
Chain of c-kit kinase (h) (P10721 26-976): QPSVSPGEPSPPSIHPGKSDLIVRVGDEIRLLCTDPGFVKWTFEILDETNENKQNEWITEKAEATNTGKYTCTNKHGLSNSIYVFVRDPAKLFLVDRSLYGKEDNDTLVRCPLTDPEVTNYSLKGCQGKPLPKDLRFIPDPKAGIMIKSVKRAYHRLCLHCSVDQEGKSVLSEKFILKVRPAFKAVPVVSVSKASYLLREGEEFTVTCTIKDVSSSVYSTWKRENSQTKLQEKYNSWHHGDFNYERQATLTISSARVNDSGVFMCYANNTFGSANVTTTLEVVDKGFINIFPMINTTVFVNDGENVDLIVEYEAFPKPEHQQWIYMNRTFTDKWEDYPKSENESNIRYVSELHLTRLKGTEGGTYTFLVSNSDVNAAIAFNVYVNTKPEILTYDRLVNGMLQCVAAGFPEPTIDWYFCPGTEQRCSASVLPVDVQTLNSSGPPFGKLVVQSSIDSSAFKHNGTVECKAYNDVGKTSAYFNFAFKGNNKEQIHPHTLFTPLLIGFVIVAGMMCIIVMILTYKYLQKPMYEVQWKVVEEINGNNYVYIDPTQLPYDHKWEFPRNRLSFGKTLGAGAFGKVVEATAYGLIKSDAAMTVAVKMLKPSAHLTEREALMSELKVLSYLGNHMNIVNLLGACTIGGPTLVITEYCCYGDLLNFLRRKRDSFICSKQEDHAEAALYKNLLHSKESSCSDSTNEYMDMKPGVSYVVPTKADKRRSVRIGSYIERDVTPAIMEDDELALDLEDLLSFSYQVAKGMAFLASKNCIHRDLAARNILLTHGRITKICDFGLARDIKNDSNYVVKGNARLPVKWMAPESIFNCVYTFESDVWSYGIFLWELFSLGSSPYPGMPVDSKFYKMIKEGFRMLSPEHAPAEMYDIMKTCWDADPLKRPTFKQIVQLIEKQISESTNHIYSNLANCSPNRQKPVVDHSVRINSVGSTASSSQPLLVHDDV
Procedure: as §1, with “bacteria. [table]” for “bacteria.”, “transfer. Clin Chem 41, 1391-7 (1995)).” for “transfer.”

Src kinase (h) = Src kinase (h) (Homo sapiens (Human), UniProt P12931); assay: Cerep kinase profiling, HTRF assay, Src kinase; type: biochemical
Chain of Src kinase (h) (P12931 whole entry, looked up): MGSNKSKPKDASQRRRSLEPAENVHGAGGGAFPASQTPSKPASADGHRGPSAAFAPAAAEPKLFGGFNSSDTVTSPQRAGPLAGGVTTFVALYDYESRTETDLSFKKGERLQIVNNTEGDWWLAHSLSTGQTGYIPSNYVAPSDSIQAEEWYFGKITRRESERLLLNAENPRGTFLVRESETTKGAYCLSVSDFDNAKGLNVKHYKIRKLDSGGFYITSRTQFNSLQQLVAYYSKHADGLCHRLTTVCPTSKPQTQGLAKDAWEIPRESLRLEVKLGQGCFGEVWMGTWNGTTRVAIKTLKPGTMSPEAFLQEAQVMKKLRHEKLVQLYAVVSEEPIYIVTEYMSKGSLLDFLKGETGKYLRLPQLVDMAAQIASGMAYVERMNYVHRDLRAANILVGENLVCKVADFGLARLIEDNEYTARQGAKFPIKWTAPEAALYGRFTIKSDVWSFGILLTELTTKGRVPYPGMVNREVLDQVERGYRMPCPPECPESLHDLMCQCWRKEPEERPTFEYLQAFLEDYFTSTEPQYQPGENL
Procedure: as §1

AurA/Aur2 kinase (h) = AurA/Aur2 kinase (h) (Homo sapiens (Human), UniProt O14965); assay: Cerep kinase profiling, HTRF assay, Aurora-A kinase; type: biochemical; settings: compound incubated at 10 μM; read-out: Percentage inhibition of kinase Aurora-A
Chain of AurA/Aur2 kinase (h) (O14965 whole entry): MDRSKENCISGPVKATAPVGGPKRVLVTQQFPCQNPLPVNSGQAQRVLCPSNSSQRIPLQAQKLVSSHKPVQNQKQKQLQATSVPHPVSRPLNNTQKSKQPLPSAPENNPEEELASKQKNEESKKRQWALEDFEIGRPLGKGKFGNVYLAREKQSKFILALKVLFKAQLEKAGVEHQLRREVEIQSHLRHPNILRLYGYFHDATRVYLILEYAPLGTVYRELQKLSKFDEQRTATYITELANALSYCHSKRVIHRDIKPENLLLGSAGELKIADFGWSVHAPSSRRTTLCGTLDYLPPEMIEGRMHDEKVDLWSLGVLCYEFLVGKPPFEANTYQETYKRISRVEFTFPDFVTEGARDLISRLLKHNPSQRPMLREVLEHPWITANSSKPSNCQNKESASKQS
Procedure: as §1, with “bacteria. [table]” for “bacteria.”, “transfer. Clin Chem 41, 1391-7 (1995)).” for “transfer.”

PDGFRα kinase (h) = PDGFRα kinase (h) (Homo sapiens (Human), UniProt P16234); assay: Cerep kinase profiling, HTRF assay, PDGFRα kinase; type: biochemical; settings: compound incubated at 10 μM; read-out: Percentage inhibition of kinase PDGFR-α
Chain of PDGFRα kinase (h) (P16234 24-1089): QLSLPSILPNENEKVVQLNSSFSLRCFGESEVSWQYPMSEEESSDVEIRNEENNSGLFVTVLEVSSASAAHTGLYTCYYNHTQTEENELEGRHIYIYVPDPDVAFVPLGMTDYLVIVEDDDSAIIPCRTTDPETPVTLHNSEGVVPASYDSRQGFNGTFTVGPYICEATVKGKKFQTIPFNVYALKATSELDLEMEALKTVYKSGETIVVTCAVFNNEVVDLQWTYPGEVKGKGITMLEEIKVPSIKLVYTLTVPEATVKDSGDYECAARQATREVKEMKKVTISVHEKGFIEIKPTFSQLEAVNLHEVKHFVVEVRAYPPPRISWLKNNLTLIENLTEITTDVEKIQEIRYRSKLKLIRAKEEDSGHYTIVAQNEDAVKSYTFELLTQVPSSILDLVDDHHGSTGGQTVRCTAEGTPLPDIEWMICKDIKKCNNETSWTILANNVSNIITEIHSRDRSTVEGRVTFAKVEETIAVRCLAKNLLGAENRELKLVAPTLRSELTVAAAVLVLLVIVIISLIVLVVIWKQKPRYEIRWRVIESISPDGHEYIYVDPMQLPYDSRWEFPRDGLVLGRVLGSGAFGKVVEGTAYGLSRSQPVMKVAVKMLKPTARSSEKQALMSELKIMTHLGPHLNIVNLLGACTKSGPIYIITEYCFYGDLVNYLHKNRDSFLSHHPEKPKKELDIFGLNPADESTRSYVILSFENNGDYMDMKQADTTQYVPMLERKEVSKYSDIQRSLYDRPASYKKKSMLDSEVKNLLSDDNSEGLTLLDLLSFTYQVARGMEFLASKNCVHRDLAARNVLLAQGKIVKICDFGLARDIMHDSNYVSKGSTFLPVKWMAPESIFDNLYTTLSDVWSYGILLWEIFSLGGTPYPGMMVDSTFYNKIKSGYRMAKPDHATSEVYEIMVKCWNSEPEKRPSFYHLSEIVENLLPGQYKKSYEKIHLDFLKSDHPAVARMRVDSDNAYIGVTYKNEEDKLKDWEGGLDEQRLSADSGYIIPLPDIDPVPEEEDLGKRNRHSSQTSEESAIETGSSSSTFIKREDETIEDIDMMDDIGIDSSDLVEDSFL
Procedure: as §1, with “bacteria. [table]” for “bacteria.”, “transfer. Clin Chem 41, 1391-7 (1995)).” for “transfer.”

Abl WT = Abl WT (Homo sapiens (Human), UniProt P00519); assay: Reaction Biology Corp. kinase assay, Abl WT; type: biochemical; settings: Table 11; ATP at 10 μM; read-out: IC50 in nM Abl WT
Procedure: (§2) 4 compounds were tested for their capacity to inhibit various mutated kinases AbI (American company, Reaction Biology Corp.).

Abl Y253F = Abl Y253F (Homo sapiens (Human), UniProt P00519, Y253F); assay: Reaction Biology Corp. kinase assay, mutated Abl Y253F; type: biochemical; settings: Table 11; ATP at 10 μM
Procedure: as §2

Abl T315I = Abl T315I (Homo sapiens (Human), UniProt P00519, T315I); assay: Reaction Biology Corp. kinase assay, mutated Abl T315I; type: biochemical; settings: Table 11; ATP at 10 μM; read-out: IC50 in nM Abl T315I
Procedure: as §2

[1] = tested on: K562 cells expressing kinase Bcr-AbI; assay: Inhibition of cellular proliferation (MTT), K562 cells; type: cell-based, human; settings: for IC50: Homo sapiens
Procedure: Cellular tests were carried out at the Montpellier Cancer Research Centre. The inhibition of proliferation by our compounds was analysed on 2 cell lines (U937 and K562) by calculating the IC50, testing 6 concentrations in triplicate for each of the compounds and for each line.
Cells in exponential phase were seeded in 96-well plates at a concentration of 10^4 cells/100 μL/well. The final concentrations of compound in the well in contact with the cells were 0.1; 0.3; 0.9; 3.3; 10; 30; 90 μM. […]

[2] = tested on: K562 cells expressing kinase Bcr-AbI; settings: known activity; BCR-Abl+ cells, patient with CML; cited from earlier work
U937 cells (BCR-Abl−) [3] = tested on: U937 cells (BCR-Abl−)
U937 cells (BCR-Abl−) [4] = assay: cells; settings: Homo sapiens, U-937, 72 h
[5] = 10 μM, compounds tested by Cerep, read-out: % inhibition of kinase activity, Abl WT (category)
[6] = Table 6, compound incubated at 10 μM, read-out: Percentage inhibition of kinase Abl
[7] = Table 8, compound incubated at 10 μM, read-out: Percentage inhibition of kinase Abl
[8] = 10 μM, compounds tested by Cerep, read-out: % inhibition of kinase activity, Src (category)
[9] = compound incubated at 10 μM, read-out: Percentage inhibition of kinase c-Src
[10] = K562, 72 h, read-out: IC50 at 72 h on K562 (category), 72 h incubation

Compound	inhibition at 10 µM (Abl kinase (h); [5])	inhibition at 10 µM (Abl kinase (h); [6])	inhibition at 10 µM (Abl kinase (h); [7])	inhibition at 10 µM (c-kit kinase (h))	inhibition at 10 µM (Src kinase (h); [8])	inhibition at 10 µM (Src kinase (h); [9])	inhibition at 10 µM (AurA/Aur2 kinase (h))	inhibition at 10 µM (PDGFRα kinase (h))	IC50 [1, 10]	other results
COC(=O)c1cc2cc(NC(=O)c3ccccc3Br)cnc2[nH]1 [ND0020, Methyl 5-(2-bromobenzamido)-1H-pyrrolo[2,3-b]pyridine-2-carboxylate]	> 50%	85%	85%	10%	> 50%	50%	5%	0%	1 to 10 µM	IC50 (Abl kinase (h); Table 9, Cerep, 5 concentrations 10^−10 M to 10^−4 M, read-out: IC50 in M Abl): 0.46 µM; IC50 (Abl kinase (h); compounds tested by Cerep, read-out: IC50 on kinase Abl WT (category)): 0.1 to 10 µM; IC50 (Abl WT): 44.6 nM; IC50 (Abl Y253F): < 10 nM; IC50 (Abl T315I): > 100000 nM; IC50 ([1]; K562, 24 h, 24 h incubation, read-out: IC50 at 24 h on K562 (category)): 1 to 10 µM
Cc1ccc(NC(=O)c2ccc(CN3CCN(C)CC3)cc2)cc1Nc1nccc(-c2cccnc2)n1 [Imatinib]	–	–	–	–	–	–	–	–	–	Action of Imatinib on K562 [2]: Sensitive
CN(C)CCCNC(=O)c1cc2cc(NC(=O)c3ccccc3Br)cnc2[nH]1 [ND0009, 5-(2-bromobenzamido)-N-(3-(dimethylamino)propyl)-1H-pyrrolo[2,3-b]pyridine-2-carboxamide]	> 50%	100%	100%	44%	> 50%	90%	5%	11%	> 10 µM	IC50 (Src kinase (h); Table 9, Cerep, read-out: IC50 in M c-Src): 2.2 µM; IC50 (Src kinase (h); compound tested by Cerep, read-out: IC50 on kinase Src (category)): 0.1 to 10 µM; activity on the Bcr-AbI+ cells (K562), in words [1]: active; IC50 ([1]; K562, 72 h, Table 12, 72 h of treatment, MTT, read-out: IC50 (μM) K562): 6 µM; IC50 ([1]; K562, incubation time not stated (24 h and/or 72 h), read-out: IC50 for the K562 Bcr-AbI kinase (category)): > 10 µM; activity on the Bcr-AbI− cells (U937), in words (U937 cells (BCR-Abl−) [3]): not on the Bcr-AbI− cells; IC50 (U937 cells (BCR-Abl−) [4]; read-out: IC50 (μM) U937, Table 12, 72 h of treatment, MTT): > 100 µM; IC50 (U937 cells (BCR-Abl−) [4]; read-out: IC50 at 72 h on U937 (category), 72 h incubation): > 10 µM
